Measurements reported in PubChem BioAssay (NCI).
Values joined by “and” are separate entries in the source; they are usually repeats but may differ in a detail not shown here. Equal entries are not always repeated.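 Method: 48-hour compound exposure of cells in 96-well plates, five concentrations, linear interpolation of endpoints. The concentration for 50% growth inhibition is given as GI50. TGI marks complete inhibition of growth.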

Columns and labels:
Assay in all cases: NCI tumour cell line growth inhibition, 48 h
SK-OV-3 ovarian = test system: SK-OV-3 ovarian
NCI/ADR-RES ovarian = test system: NCI/ADR-RES ovarian
SF-268 CNS = test system: SF-268 CNS
T-47D breast = test system: T-47D breast
NCI-H522 lung = test system: NCI-H522 lung
MDA-MB-231 breast = test system: MDA-MB-231 breast
SK-MEL-2 melanoma = test system: SK-MEL-2 melanoma
CAKI-1 renal = test system: CAKI-1 renal
SK-MEL-5 melanoma = test system: SK-MEL-5 melanoma
MDA-MB-435 = test system: MDA-MB-435

SMILES	GI50 (SK-OV-3 ovarian)	TGI (SK-OV-3 ovarian)	GI50 (NCI/ADR-RES ovarian)	TGI (NCI/ADR-RES ovarian)	GI50 (SF-268 CNS)	TGI (SF-268 CNS)	GI50 (T-47D breast)	TGI (T-47D breast)	GI50 (NCI-H522 lung)	TGI (NCI-H522 lung)	GI50 (MDA-MB-231 breast)	TGI (MDA-MB-231 breast)	GI50 (SK-MEL-2 melanoma)	TGI (SK-MEL-2 melanoma)	GI50 (CAKI-1 renal)	TGI (CAKI-1 renal)	GI50 (SK-MEL-5 melanoma)	TGI (SK-MEL-5 melanoma)	GI50 (MDA-MB-435)	TGI (MDA-MB-435)
COc1cc(/C=C2\SC(N3CCCCC3)=NC2=O)ccc1OCCCCCCOc1ccc(/C=C2\SC(N3CCCCC3)=NC2=O)cc1OC	4.91 µM	17.4 µM	9.11 µM	28.2 µM	4.2 µM	17.6 µM	8.9 µM	44.5 µM	3.18 µM	22 µM	2.13 µM	21 µM	21.8 µM	93.9 µM	22.7 µM	84.7 µM	9.35 µM	28.2 µM	10.8 µM	79.1 µM
CNC(=O)OCc1nc(SC)n(C)c1COC(=O)NC		525 µM		535 µM		450 µM		554 µM		246 µM		430 µM		290 µM		497 µM		327 µM		327 µM
O=c1[nH]cnc2n[nH]nc12		> 25.2 µM	0.472 µM	> 100 µM		> 94.3 µM	3.49 µM	> 100 µM		53.3 µM	1.67 µM	> 100 µM		32 µM		> 100 µM		> 100 µM	0.448 µM	> 100 µM
N#[N+]c1ccc(Nc2ccccc2)cc1	> 50 µg/mL	> 50 µg/mL	> 50 µg/mL	> 50 µg/mL	> 50 µg/mL	> 50 µg/mL	> 50 µg/mL	> 50 µg/mL	> 50 µg/mL	> 50 µg/mL	> 50 µg/mL	> 50 µg/mL	> 50 µg/mL	> 50 µg/mL	1.11 µg/mL	19.3 µg/mL	> 50 µg/mL	> 50 µg/mL	1.83 µg/mL	17.7 µg/mL
COc1cc2c3cc1Oc1c(OC)c(OC)cc4c1C(Cc1ccc(O)c(c1)Oc1ccc(cc1)CC3N(C)CC2)N(C)CC4 (centres undefined)	36.9 µM	91.2 µM and > 100 µM		> 100 µM	15.2 µM	64.2 µM and 51.8 µM	15 µM	75.7 µM and 36.2 µM	13.4 µM	> 100 µM and 30.4 µM	5.21 µM	> 100 µM and 21.9 µM	20.2 µM	> 100 µM and 36.6 µM	14 µM	48.5 µM and 40.6 µM	11 µM	52 µM and 23.3 µM	6.7 µM	19.8 µM
OCCN(CO)CO		> 100 µM		> 100 µM		> 100 µM		> 100 µM		> 100 µM		> 100 µM		> 100 µM		> 100 µM		> 100 µM		> 100 µM
Cn1c(=O)c2c(nc(N/N=C/c3ccccc3C(=O)O)n2C)n(C)c1=O		> 100 µM		> 100 µM		> 100 µM		> 100 µM		> 100 µM		> 100 µM		> 100 µM		> 100 µM		> 100 µM		> 100 µM
Nn1c(-c2ccc(Cl)cc2)nc2c(-c3ccc(Cl)cc3)nc3ccc(Cl)cc3c2c1=O	14.5 µM	40.3 µM	48.3 µM	> 100 µM	5.18 µM	72.3 µM	9.3 µM	67.2 µM	20.9 µM	> 100 µM	14.1 µM	62.5 µM	25.2 µM	> 100 µM	3.97 µM	22 µM	56.6 µM	> 100 µM	> 100 µM	> 100 µM
O=C1Nc2ccc3c(c2/C1=C\c1cc2c(cc1Br)OCO2)OCO3	0.512 µM	1.89 µM	0.364 µM	4.97 µM	0.524 µM	3.28 µM	0.969 µM	6.58 µM	0.369 µM	8.17 µM	0.793 µM	3.27 µM	3.4 µM	> 100 µM	0.331 µM	2.8 µM	0.429 µM	2.52 µM	0.106 µM	0.305 µM
CC[C@H]1OC(=O)[C@H](C)[C@@H](O[C@H]2C[C@@](C)(OC)[C@@H](O)[C@H](C)O2)[C@H](C)[C@@H](O[C@@H]2O[C@H](C)C[C@H](N(C)C)[C@H]2O)[C@](C)(OC)C/C(C)=C2/O[C@@]1(C)C=C2C	1.91 µM	3.75 µM	1.77 µM	3.57 µM	1.6 µM	3.3 µM	1.96 µM	4.56 µM	1.72 µM	3.63 µM	1.67 µM	3.13 µM	1.85 µM	3.73 µM	1.51 µM	2.93 µM	1.79 µM	3.21 µM	1.67 µM	3.15 µM
COc1ccc(C2NC(=S)NC3=C2CCOc2c3ccc3ccccc23)cc1 (centres undefined)	> 100 µM	> 100 µM	32.6 µM	> 100 µM	6.73 µM	> 100 µM	8.5 µM	> 100 µM	46.6 µM	> 100 µM	98.9 µM	> 100 µM	> 100 µM	> 100 µM	> 100 µM	> 100 µM	18.2 µM	> 100 µM	36.4 µM	> 100 µM
Clc1ccc(CN2CCCN(Cc3ccc(Cl)cc3)C2c2cc3ccccc3c3ccccc23)cc1		> 100 µM		> 100 µM		> 100 µM		> 100 µM		51 µM		> 100 µM		44.1 µM		> 100 µM		32.7 µM		> 100 µM
COc1ccc(C(O)c2cc3c(N)c(C(=O)Nc4cccc(Br)c4C)sc3nc2C)cc1 (centres undefined)	0.251 µM	> 33.3 µM	0.179 µM	2.99 µM	0.405 µM	> 27.8 µM	0.346 µM	> 33.3 µM	0.157 µM		0.462 µM	8.96 µM	1.17 µM	> 33.3 µM	0.151 µM	18.1 µM	0.143 µM	0.922 µM	0.0665 µM	0.149 µM
NCCCN=c1ccc2c3c1c(O)c1c(O)ccc(=O)c1c3[nH]n2CCNCCO	1.51 µM	16.2 µM and 55.7 µM	20.1 µM	25 µM and > 236 µM		6.51 µM		15.8 µM	0.55 µM	4.69 µM and 3.28 µM	2.43 µM	12.3 µM and 25 µM	3.28 µM and 1.08 µM	8.18 µM and 4.08 µM	1.1 µM and 0.528 µM	11.2 µM and 3.84 µM	0.706 µM	3.61 µM and 4.11 µM		15.4 µM
